Laboratory results published in US7067517B2 (priority 2001, dated 2006).
Where two headings read alike, the source gives them in different places.

How the values were obtained:
[1] = target: T1, Hormone-sensitive lipase (HSL) (Homo sapiens, UniProt Q05469); test: biochemical; conditions: read-out: Test 3190.1 HSL_FL % ACTIVITY All
T1 sequence (Q05469 1-1076): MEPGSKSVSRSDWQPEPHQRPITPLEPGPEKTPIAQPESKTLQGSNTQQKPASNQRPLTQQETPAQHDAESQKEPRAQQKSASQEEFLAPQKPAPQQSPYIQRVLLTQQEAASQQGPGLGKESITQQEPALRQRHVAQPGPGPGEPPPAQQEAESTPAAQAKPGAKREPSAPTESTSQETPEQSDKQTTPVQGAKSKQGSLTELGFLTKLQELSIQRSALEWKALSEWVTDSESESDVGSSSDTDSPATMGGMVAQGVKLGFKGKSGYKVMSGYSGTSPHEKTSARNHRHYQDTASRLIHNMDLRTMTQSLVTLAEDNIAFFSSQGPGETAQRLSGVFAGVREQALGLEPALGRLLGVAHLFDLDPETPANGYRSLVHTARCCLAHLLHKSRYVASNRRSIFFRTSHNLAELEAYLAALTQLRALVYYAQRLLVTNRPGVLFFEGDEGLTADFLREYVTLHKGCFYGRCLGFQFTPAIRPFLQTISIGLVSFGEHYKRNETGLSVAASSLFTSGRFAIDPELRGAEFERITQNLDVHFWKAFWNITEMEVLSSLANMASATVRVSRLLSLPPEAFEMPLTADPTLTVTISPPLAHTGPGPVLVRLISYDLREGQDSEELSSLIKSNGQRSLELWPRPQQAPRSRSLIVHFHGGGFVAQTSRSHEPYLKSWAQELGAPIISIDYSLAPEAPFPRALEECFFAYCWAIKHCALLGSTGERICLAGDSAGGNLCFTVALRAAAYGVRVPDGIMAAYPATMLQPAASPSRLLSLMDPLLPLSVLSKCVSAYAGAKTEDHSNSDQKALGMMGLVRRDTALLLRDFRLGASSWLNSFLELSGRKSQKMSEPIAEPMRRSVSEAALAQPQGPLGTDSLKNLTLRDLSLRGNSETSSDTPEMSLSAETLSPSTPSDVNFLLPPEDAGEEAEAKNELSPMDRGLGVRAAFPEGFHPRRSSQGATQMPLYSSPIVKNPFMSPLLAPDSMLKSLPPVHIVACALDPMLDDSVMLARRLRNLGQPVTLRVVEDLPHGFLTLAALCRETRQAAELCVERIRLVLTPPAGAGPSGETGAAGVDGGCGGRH
Experimental: Materials. The Hormone-sensitive lipase was provided by Dr. Cecilia Holm, from Lund University Sweden or produced and purified by Novo Nordisk (NN) using the reagents and protocols used by Dr. Holm. […] All other reagents are of commercial grade and obtained from various commercial sources.
BSA is added as product receptor. The transfer of the fluorochrome from the lipid phase to the water (BSA) phase changes the fluorescent properties of the fluorochrome. The changes can be monitored on a fluorimeter with an excitation wavelength of 450 nm and an emission wavelength of 545 nm.
Compound and HSL (20 μL compound, 10 μL enzyme and 70 μL PED-BSA buffer) is pre-incubated for 30 min at 25° C. before addition of substrate (100 μL). Amount of formed product is measured after 120 min incubation at 37° C.

[2] = target: T1, Hormone-sensitive lipase (HSL); test: biochemical; format: biochemical; conditions: for activity at 10 µM: read-out: Test 3180.2 HSL % ACTIVITY All
Excerpt: (§1) Materials. The Hormone-sensitive lipase was provided by Dr. Cecilia Holm, from Lund University Sweden or produced and purified by Novo Nordisk (NN) using the reagents and protocols used by Dr. Holm. The substrates used are: ^3H-labeled triolein (TO) from Amersham, Buckinghamshire, U.K. cat No. TRA191; 5–20 Ci/mmol dissolved in toluene, triolein (Sigma, Cat. No. T-1740), fluorochrome-labeled triacylglyceride (cis-octadec-9-enoic acid 2-[12-(7-nitrobenzo[1,2,5]oxadiazol-4-ylamino)dodecanoyloxy]-1-cis-octadec-9-enoyloxymethyl-ethyl ester) prepared by Novo Nordisk (NN) by conventional methods, and 1,3-(di[^3H]-stearin), 2-(PEG-Boitin)glycerol prepared in collaboration with Amersham Pharmacia Biotech, UK and described in WO 01/073442. Phosphatidyl choline (PC) and phosphatidyl inositol (PI) are from Sigma (St Luis Mo. cat. Nos. P-3556 and P-5954 respectively). All other reagents are of commercial grade and obtained from various commercial sources.
3180.2: Assay for determination of percent inhibition by compound at 10 μM concentration.
A lipid emulsion with ^3H-Triolein and phospholipid is used as substrate with a standard cencentration of highly purified HSL. BSA is added as product receptor. The substrate is prepared as follows:
30 μl PC:PI (20 mg/ml solution of PC:PI 3:1 prepared in chloroform)+128 μl cold TO+15 μl ^3H-TO are mixed and then evaporated under a gentle stream of N2 followed by 20–30 minutes in a Speedvac to ensure the absence of residual solvent.
Compound and HSL are incubated for 30 min at 25° C. before addition of substrate. Reaction is stopped after 30 min at 25° C. by adding a mixture of methanol, chloroform and heptane at high pH. Formed product is separated from substrate by phase separation.
Results are given as percent activity relative to an un-inhibited sample (no compound).

[3] = target: T1, Hormone-sensitive lipase (HSL); format: biochemical
Excerpt: as §1
2898.2: This method is an enzyme assay based upon SPA (scintillation proximity assay) particles. The substrate, 1,3-(di-[^3H]-stearin), 2-(PEG-Biotin)-glycerol, is marked with ^3H in both fatty acid moieties in the tri-glyceride. The third moiety of the tri-glyceride is a PEG linked Biotin. The substrate binds through Biotin to streptavidin in the SPA particles and the proximity between the radioactive tritium in the stearic acid moiety and the SPA particle results in emission of light from the SPA particles. The assay is an on-bead assay where HSL degrades the substrate, where after ^3H-stearin acid is released from the bead. The amount of light emitted is proportional to the amount of substrate bound to the receptor. When a compound that inhibits the activity of HSL is present it results in a decrease in degradation of the substrate and thus an increase in the amount of light emitted and a concomitant increase in % Eff. % Eff(% Inhibition)=(S−S0Eff)/(SmaxEff−S0Eff)×100 Where S=signal in dpm., SOEff=no inhibitor added, SmaxEff=with maximum concentration of inhibitor. Results

[4] = 10 μM sample concentration, percent activity relative to a non-inhibited sample (no compound)
[5] = SPA on-bead assay, % Eff (% Inhibition)
[6] = 10 μM concentration, percent activity relative to an un-inhibited sample (no compound)

For `CC(C)(C)Oc1ccc(OC(=O)N2CCOCC2)cc1` [Example 87, Morpholine-4-carboxylic acid 4-tert-butoxy-phenyl ester], the activity at 10 µM [1, 4] was 48% and the melting point was 128.8 to 129.5 °C.
In the case of `CN(C)C(=O)On1nnc2ccccc21` [Example 103, Dimethylcarbamic acid benzotriazol-1-yl ester], the activity at 10 µM [2] is reported as 2% and the “Test 2898.2 HSL2 % Inhibition All” value [3, 5] is reported as 101.4%.
With `Cc1ccc(CSc2nnc(OC(=O)N(C)C)n2-c2cccc(Cl)c2)cc1` [Example 133, Dimethyl carbamic acid 4-(3-chloro-phenyl)-5-(4-methyl-benzylsulfanyl)-4H-[1,2,4]triazol-3-yl ester] the “Test 2898.2 HSL2 % Inhibition All” value [3, 5] was 15.8%.
Compound `CSc1nc(-c2ccc(Cl)cc2)nn1C(=O)N1CCOCC1` [Example 120, [3-(4-Chlorophenyl)-5-methylsulfanyl-[1,2,4]triazol-1-yl]-morpholin-4-yl-methanone] has an activity at 10 µM [2, 6] of 40%.
Compound `CCSc1nc(-c2ccc(Cl)cc2)nn1C(=O)N(C)C` [Example 122, N,N-Dimethyl-3-(4-chloro-phenyl)-5-ethylsulfanyl-[1,2,4]triazole-1-carboxamide] has an activity at 10 µM [2, 6] of 14%.
With “1-Biphenyl-4-yl-3-methylamino-propenone-cyclohexyl-carbamic acid [Example 115]” the “Test 3180.2 HSL % ACTIVITY All” value ([2]; 10 µM) was 85% and the “Test 2898.2 HSL2 % Inhibition All” value [3] was 73.6%.
Work on `CN(C(=O)On1ccnn1)c1ccccc1` [Example 144, Methyl-phenyl-carbamic acid [1,2,3]triazol-1-yl ester] yielded an activity at 10 µM [1] of 25% and a melting point of 105 to 106 °C.
In the case of “N-Methyl-N-phenethyl-5-ethyl-3-(4-chlorophenyl)-[1,2,4]triazole-1-carboxamide [Example 119]”, the “Test 3180.2 HSL % ACTIVITY All” value [2, 6] is reported as 10%.
In the case of `CSc1nc(-c2ccc(Cl)cc2)nn1C(=O)N(C)C` [Example 124, N,N-Dimethyl-3-(4-chloro-phenyl)-5-methylsulfanyl-[1,2,4]triazole-1-carboxamide], the “Test 2898.2 HSL2 % Inhibition All” value [3, 5] is reported as 75.1%.
For `CC(C)C(Cl)=NOC(=O)NCc1ccc(F)cc1` [Example 112, N-(4-Fluorobenzylcarbamoyloxy)-isobutyrimidoyl chloride], the “Test 2898.2 HSL2 % Inhibition All” value [3, 5] was 86%.
In the case of `CSc1nc(-c2ccc3ccccc3c2)nn1C(=O)N(C)C` [Example 121, N,N-Dimethyl-5-methylsulfanyl-3-naphthalen-2-yl-[1,2,4]triazole-1-carboxamide], the activity at 10 µM [2, 6] is reported as 24%.
`O=C(Nc1cccn1-c1ncc(C(F)(F)F)cc1Cl)Oc1ccc(Cl)cc1` [Example 117, [1-(3-Chloro-5-trifluoromethyl-pyridin-2-yl)-1H-pyrrol-2-yl]-carbamic acid 4-chloro-phenyl ester] showed an activity at 10 µM [2, 6] of 2%.
Work on `CCCCCCSc1nc(-c2ccc(C)cc2)nn1C(=O)N(C)c1ccccc1` [Example 118, N-Methyl-N-phenyl-5-hexylsulfanyl-3-p-tolyl-[1,2,4]triazole-1-carboxamide] yielded an activity at 10 µM [2, 6] of 24%.
In the case of `O=C(Oc1ccc(Oc2ccc(C(F)(F)F)cn2)cc1)N1CCc2ccccc21` [Example 62, 2,3-Dihydro-indole-1-carboxylic acid 4-(5-trifluoromethyl-pyridin-2-yloxy)-phenyl ester], the activity at 10 µM [1, 4] is reported as 88%.
In the case of `Cc1c(Cc2ccccc2)c(=O)oc2cc(OC(=O)N3CCCc4ccccc43)ccc12` [Example 73, 3,4-Dihydro-2H-quinoline-1-carboxylic acid 3-benzyl-4-methyl-2-oxo-2H-chromen-7-yl ester], the activity at 10 µM [1, 4] is reported as 39%.
Work on `COc1ccc(-c2c(C)c3ccc(OC(=O)N(C)c4ccccc4)cc3oc2=O)cc1` [Example 46, Methyl-phenyl-carbamic acid 3-(4-methoxy-phenyl)-4-methyl-2-oxo-2H-chromen-7-yl ester] yielded an activity at 10 µM [1] of 43%.
With `Cc1c(Cc2ccccc2)c(=O)oc2cc(OC(=O)N3CCOCC3)ccc12` [Example 92] the “Test 3180.2 HSL % ACTIVITY All” value [2, 6] was 62%.
With `CC(C)C(Cl)=NOC(=O)NCC(O)c1ccccc1` (centres unmarked) [Example 113, N-(2-Hydroxy-2-phenylethylcarbamoyloxy)-isobutyrimidoyl chloride] the “Test 2898.2 HSL2 % Inhibition All” value [3, 5] was 18.3%.
`CSc1nc(-c2ccc(-c3ccccc3)cc2)nn1C(=O)N(C)C` [Example 123, N,N-Dimethyl-3-biphenyl-4-yl-5-methylsulfanyl-[1,2,4]triazole-1-carboxamide] showed an activity at 10 µM [2, 6] of 22%.
